One molecule from ChEMBL document CHEMBL5375982, “How Modulator Binding at the Amyloidβ-γ-Secretase Interface Enhances Substrate Binding and Attenuates Membrane Distortion” (J Med Chem, 2023) can be followed below.

Activity calls are given as the source filed them. The rule behind the calls is not given here.

Format in all cases: cell-based
The target in test [1] is T1, Gamma-secretase (Homo sapiens) (UniProt Q96BI3+Q9NZ42+Q8WW43+P49768+Q92542+P49810). Kind of test: Modulation of gamma-secretase activity in HEK293T cells transfected with APP C99 K28D mutant assessed as […] in amyloidbeta37 to amyloidbeta40 ratio at 10 uM incubated for 24 to 30 hrs by ELISA. The note with it: filed as modulator, time 24-30 hrs. On the technique in general: ELISA stands for enzyme-linked immunosorbent assay.

The target in test [2] is T1, Gamma-secretase (Homo sapiens). Kind of test: Modulation of gamma-secretase activity in HEK293T cells transfected with APP C99 K28E mutant assessed as […] in amyloidbeta37 to amyloidbeta40 ratio at 10 uM incubated for 24 to 30 hrs by ELISA. Particulars: filed as modulator, time 24-30 hrs.
Test [3] shares this target. Kind of test: Modulation of gamma-secretase activity in HEK293T cells transfected with APP C99 K28D mutant assessed as increase in processivity at 10 uM incubated for 24 to 30 hrs by ELISA. Particulars: time 24-30 hrs.
Test [4] has the same target. Kind of test: Modulation of gamma-secretase activity in HEK293T cells transfected with APP C99 K28R mutant assessed as increase in processivity at 10 uM incubated for 24 to 30 hrs by ELISA. The note with it: filed as modulator, time 24-30 hrs.
The target is the same in test [5]. Kind of test: Modulation of gamma-secretase activity in HEK293T cells transfected with wild type APP C99 assessed as increase in processivity at 10 uM incubated for 24 to 30 hrs by ELISA. The note with it: filed as modulator, time 24-30 hrs.
For test [6] the target is unchanged. Kind of test: Modulation of gamma-secretase activity in HEK293T cells transfected with APP C99 K28E mutant assessed as increase in processivity at 10 uM incubated for 24 to 30 hrs by ELISA. The note with it: time 24-30 hrs.

Take `COc1cc(/C=C2\CCCN([C@@H](C)c3ccc(F)cc3)C2=O)ccc1-n1cnc(C)c1`: the outcome in test [1], in test [2], in test [4] and in test [5] was Active. The result in test [3] and in test [6] was inactive.
